Calls of active or inactive are those of the source. The rule behind the calls is not given here.

For one test, the system named is HUVEC. Nature of the test: Cytoprotective activity against H2O2-induced cell injury in HUVEC assessed as increase in cell viability at 10 uM pretreated for 24 hrs followed by H2O2-stimulation after 2 hrs by MTT assay. To be noted: Homo sapiens. The format is functional, cell-based.
For `C=C[C@]1(C)CC[C@@H](C(=C)COC(=O)CCCN2CCN(CCCC(=O)OCC(=C)[C@@H]3CC[C@@](C)(C=C)[C@H](C(=C)C)C3)CC2)C[C@H]1C(=C)C`, the result was Active.
In the case of `C=C[C@]1(C)CC[C@@H](C(=C)COC(=O)COCC(=O)OCC(=C)[C@@H]2CC[C@@](C)(C=C)[C@H](C(=C)C)C2)C[C@H]1C(=C)C`, the outcome was Active.
As for `C=C[C@]1(C)CC[C@@H](C(=C)COC(=O)c2cn(CCCCn3cc(C(=O)OCC(=C)[C@@H]4CC[C@@](C)(C=C)[C@H](C(=C)C)C4)nn3)nn2)C[C@H]1C(=C)C`, the outcome was Active.
As to `C=C[C@]1(C)CC[C@@H](C(=C)COCc2cn(CCCCn3cc(COCC(=C)[C@@H]4CC[C@@](C)(C=C)[C@H](C(=C)C)C4)nn3)nn2)C[C@H]1C(=C)C`, the outcome was Active.
For `C=C[C@]1(C)CC[C@@H](C(=C)COC(=O)CCN2CCN(CCC(=O)OCC(=C)[C@@H]3CC[C@@](C)(C=C)[C@H](C(=C)C)C3)CC2)C[C@H]1C(=C)C`, the result was Active.
Consider `C=C[C@]1(C)CC[C@@H](C(=C)COC(=O)CCCn2cc(C(=O)OCC(=C)[C@@H]3CC[C@@](C)(C=C)[C@H](C(=C)C)C3)nn2)C[C@H]1C(=C)C`, for which the result was Active.
Turning to `C=C[C@]1(C)CC[C@@H](C(=C)CN2CCN(CC(=C)[C@@H]3CC[C@@](C)(C=C)[C@H](C(=C)C)C3)CC2)C[C@H]1C(=C)C`, the outcome was Active.
For `C=C[C@]1(C)CC[C@@H](C(=C)COC(=O)c2cn(CCCCCCn3cc(C(=O)OCC(=C)[C@@H]4CC[C@@](C)(C=C)[C@H](C(=C)C)C4)nn3)nn2)C[C@H]1C(=C)C`, the outcome was Active.
On to `C=C[C@]1(C)CC[C@@H](C(=C)COC(=O)CC(=O)OCC(=C)[C@@H]2CC[C@@](C)(C=C)[C@H](C(=C)C)C2)C[C@H]1C(=C)C`, for which the result was Active.
Take `C=C[C@]1(C)CC[C@@H](C(=C)COCCCCOCC(=C)[C@@H]2CC[C@@](C)(C=C)[C@H](C(=C)C)C2)C[C@H]1C(=C)C`: the result was Active.
`C=C[C@]1(C)CC[C@@H](C(=C)CN(C)CCN(C)CC(=C)[C@@H]2CC[C@@](C)(C=C)[C@H](C(=C)C)C2)C[C@H]1C(=C)C`: the outcome was Active.
Regarding `C=C[C@]1(C)CC[C@@H](C(=C)COC(=O)[C@@H]2[C@H](C(=O)OCC(=C)[C@@H]3CC[C@@](C)(C=C)[C@H](C(=C)C)C3)[C@@H]3C=C[C@H]2C3)C[C@H]1C(=C)C`, the outcome was Active.
The same measure, in the same setting: with `C=C[C@]1(C)CC[C@@H](C(=C)COC(=O)CCN(C)CCN(C)CCC(=O)OCC(=C)[C@@H]2CC[C@@](C)(C=C)[C@H](C(=C)C)C2)C[C@H]1C(=C)C` the entry was “Active”; with `C=C[C@]1(C)CC[C@@H](C(=C)COCc2cn(CCCCCCn3cc(COCC(=C)[C@@H]4CC[C@@](C)(C=C)[C@H](C(=C)C)C4)nn3)nn2)C[C@H]1C(=C)C`, “Active”.
In the case of `C=C[C@]1(C)CC[C@@H](C(=C)COCc2cn(CCCCC(=O)OCC(=C)[C@@H]3CC[C@@](C)(C=C)[C@H](C(=C)C)C3)nn2)C[C@H]1C(=C)C`, the result was Active.
The same measure, in the same setting: with `C=C[C@]1(C)CC[C@@H](C(=C)COC(=O)c2cccc(C(=O)OCC(=C)[C@@H]3CC[C@@](C)(C=C)[C@H](C(=C)C)C3)c2)C[C@H]1C(=C)C` the entry was “Active”; with `C=C[C@]1(C)CC[C@@H](C(=C)COC(=O)CCCCCn2cc(C(=O)OCC(=C)[C@@H]3CC[C@@](C)(C=C)[C@H](C(=C)C)C3)nn2)C[C@H]1C(=C)C`, “Active”.
With `C=C[C@]1(C)CC[C@@H](C(=C)COC(=O)CC[C@H](N)C(=O)OCC(=C)[C@@H]2CC[C@@](C)(C=C)[C@H](C(=C)C)C2)C[C@H]1C(=C)C`, the result was Active.
The same measure, in the same setting: the same measure for `C=C[C@]1(C)CC[C@@H](C(=C)COCc2cn(CCCCCC(=O)OCC(=C)[C@@H]3CC[C@@](C)(C=C)[C@H](C(=C)C)C3)nn2)C[C@H]1C(=C)C`: “Active”; for `C=C[C@]1(C)CC[C@@H](C(=C)COC(=O)c2ccc(C(=O)OCC(=C)[C@@H]3CC[C@@](C)(C=C)[C@H](C(=C)C)C3)cc2)C[C@H]1C(=C)C`: “Active”; for `C=C[C@]1(C)CC[C@@H](C(=C)COC(=O)CCCN(C)CCN(C)CCCC(=O)OCC(=C)[C@@H]2CC[C@@](C)(C=C)[C@H](C(=C)C)C2)C[C@H]1C(=C)C`: “Active”.
Regarding `C=C[C@]1(C)CC[C@@H](C(=C)COC(=O)CCC(=O)N2CCN(C(=O)CCC(=O)OCC(=C)[C@@H]3CC[C@@](C)(C=C)[C@H](C(=C)C)C3)CC2)C[C@H]1C(=C)C`, the result was Active.
Still for that read-out and setting: with `C=C[C@]1(C)CC[C@@H](C(=C)COC(=O)C(=O)OCC(=C)[C@@H]2CC[C@@](C)(C=C)[C@H](C(=C)C)C2)C[C@H]1C(=C)C` the entry was “Active”.
As to `C=C[C@]1(C)CC[C@@H](C(=C)COC(=O)CCCCn2cc(C(=O)OCC(=C)[C@@H]3CC[C@@](C)(C=C)[C@H](C(=C)C)C3)nn2)C[C@H]1C(=C)C`, the result was Active.
`C=C[C@]1(C)CC[C@@H](C(=C)COC(=O)CCCC(=O)OCC(=C)[C@@H]2CC[C@@](C)(C=C)[C@H](C(=C)C)C2)C[C@H]1C(=C)C`: the result was Active.
Turning to `C=C[C@]1(C)CC[C@@H](C(=C)COC(=O)c2cccc3cccc(C(=O)OCC(=C)[C@@H]4CC[C@@](C)(C=C)[C@H](C(=C)C)C4)c23)C[C@H]1C(=C)C`, the outcome was Active.
For `C=C[C@]1(C)CC[C@@H](C(=C)COC(=O)CCC(=O)OCC(=C)[C@@H]2CC[C@@](C)(C=C)[C@H](C(=C)C)C2)C[C@H]1C(=C)C`, the result was Active.
On the same count and under the same terms, with `C=C[C@]1(C)CC[C@@H](C(=C)COC(=O)C[C@H](N)C(=O)OCC(=C)[C@@H]2CC[C@@](C)(C=C)[C@H](C(=C)C)C2)C[C@H]1C(=C)C` the entry was “Active”; with `C=C[C@]1(C)CC[C@@H](C(=C)COCc2cn(CCCC(=O)OCC(=C)[C@@H]3CC[C@@](C)(C=C)[C@H](C(=C)C)C3)nn2)C[C@H]1C(=C)C`, “Active”.

Another test has as its system HUVEC. Nature of the test: Cytoprotective activity against H2O2-induced cell injury in HUVEC assessed as increase in cell viability at 100 uM pretreated for 24 hrs followed by H2O2-stimulation after 2 hrs by MTT assay. To be noted: Homo sapiens. The class given is functional, cell-based.
Regarding VITAMIN E, the outcome was Active.
